Source: US20080139608A1, “2,6,8, Trisubstituted 1-deazapurines and their different uses” (Universiteit Leiden, priority 2006, published 2008)

Legend:
[1] = biological target: T1, human adenosine A1 receptor (Homo sapiens, UniProt P30542); test: Radioligand binding assay, displacement of specific [3H]DPCPX binding; conditions: CHO cells expressing human adenosine A1 receptors; n = 3; read-out: A1 Ki ± SEM, displacement of specific [3H]DPCPX binding
T1 construct: expressed in transfected cells; host or cells: CHO cells
T1 sequence (P30542 1-326): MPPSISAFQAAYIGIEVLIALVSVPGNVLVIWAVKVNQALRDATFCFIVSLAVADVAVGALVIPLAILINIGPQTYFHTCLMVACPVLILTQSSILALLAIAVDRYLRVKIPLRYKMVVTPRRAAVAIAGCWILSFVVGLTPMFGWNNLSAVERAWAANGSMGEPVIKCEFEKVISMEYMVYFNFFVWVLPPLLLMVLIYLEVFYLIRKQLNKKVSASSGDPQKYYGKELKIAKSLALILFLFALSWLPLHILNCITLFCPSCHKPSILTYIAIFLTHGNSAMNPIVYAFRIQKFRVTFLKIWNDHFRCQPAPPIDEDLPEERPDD
Procedure: Radioligand Binding Studies [^3H]DPCPX was purchased from Amersham. All compounds made were tested in radioligand binding assays to determine their affinities at the human adenosine A1 receptor. The affinities at the A1 receptors were determined on CHO cells expressing the human receptors, using [^3H]DPCPX as the radioligand according to a previously described method.^11
Data Analysis Competition binding data were fit to a single-site binding model and plotted using the software package Prism (Graph Pad, San Diego, Calif., USA). The Cheng-Prusoff equation Ki=IC50/(1+[I]/Kd) was used to calculate Ki values, where Ki is the affinity constant for the competing ligand, [I] is the concentration of the free radioligand, and Kd is the affinity constant for the radioligand.

SMILES | Ki [1] | melting point
CCCc1nc2c(-c3ccccc3)cc(-c3ccccc3)nc2[nH]1 [Compound 6, 2,6-Diphenyl-8-propyl-1-deazapurine] | 2.45 ± 0.23 nM | 
CC(C)CCc1nc2nc(-c3ccccc3)cc(-c3ccccc3)c2[nH]1 [Compound 9, 2,6-Diphenyl-8-isopentyl-1-deazapurine] |  | 196 to 197 °C
c1ccc(-c2cc(-c3ccccc3)c3[nH]c(C4CCCCC4)nc3n2)cc1 [Compound 12, 2,6-Diphenyl-8-cyclohexyl-1-deazapurine] | 0.9 ± 0.21 nM | 

The remaining lines, values ahead:

Ki [1] | melting point | SMILES
0.61 ± 0.04 nM |  | CC(C)c1nc2nc(-c3ccccc3)cc(-c3ccccc3)c2[nH]1 [Compound 7, 2,6-Diphenyl-8-isopropyl-1-deazapurine]
0.62 ± 0.3 nM |  | c1ccc(-c2cc(-c3ccccc3)c3[nH]c(C4CCCC4)nc3n2)cc1 [Compound 11, 8-Cyclopentyl-2,6-diphenyl-1-deazapurine]
